Target: Adenosine receptor A2a (Rattus norvegicus, UniProt P30543)
Sequence (P30543 whole entry): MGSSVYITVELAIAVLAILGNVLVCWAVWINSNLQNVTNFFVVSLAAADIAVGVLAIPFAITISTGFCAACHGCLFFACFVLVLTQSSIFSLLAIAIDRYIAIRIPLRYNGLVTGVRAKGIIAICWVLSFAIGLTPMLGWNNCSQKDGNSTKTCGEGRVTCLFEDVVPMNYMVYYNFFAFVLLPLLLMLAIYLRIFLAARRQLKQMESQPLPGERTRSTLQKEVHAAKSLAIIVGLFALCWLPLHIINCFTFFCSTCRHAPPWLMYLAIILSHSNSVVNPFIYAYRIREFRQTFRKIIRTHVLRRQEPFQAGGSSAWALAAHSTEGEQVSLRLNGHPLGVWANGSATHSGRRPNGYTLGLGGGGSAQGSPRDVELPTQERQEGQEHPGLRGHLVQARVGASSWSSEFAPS

Ki: 115 nM
SMILES: Nc1nc(Nc2ccccc2)nc2c1ncn2[C@@H]1O[C@H](CO)[C@H](O)C1O (stereo partly specified) [(CV 1808) 2-(6-Amino-2-phenylamino-purin-9-yl)-5-hydroxymethyl-tetrahydro-furan-3,4-diol]

From BindingDB's records for PubMed 2795469 (Ciba-Geigy, 1989)
